The text below walks through data of ChEMBL document CHEMBL1146910, “Selectively guanidinylated derivatives of neamine. Syntheses and inhibition of anthrax lethal factor protease” (Bioorg Med Chem Lett, 2006).

pKi: −log10 of the molar value. Where only a bound is given, the exact number is not on record here.

Broadly, the pKi is the Ki on a negative log10 scale, so that one unit is a factor of ten.

What all share (details): read-out: Ki app
One test has as its target T1, Lethal factor (Bacillus anthracis, UniProt P15917).
T1 sequence (P15917 whole entry): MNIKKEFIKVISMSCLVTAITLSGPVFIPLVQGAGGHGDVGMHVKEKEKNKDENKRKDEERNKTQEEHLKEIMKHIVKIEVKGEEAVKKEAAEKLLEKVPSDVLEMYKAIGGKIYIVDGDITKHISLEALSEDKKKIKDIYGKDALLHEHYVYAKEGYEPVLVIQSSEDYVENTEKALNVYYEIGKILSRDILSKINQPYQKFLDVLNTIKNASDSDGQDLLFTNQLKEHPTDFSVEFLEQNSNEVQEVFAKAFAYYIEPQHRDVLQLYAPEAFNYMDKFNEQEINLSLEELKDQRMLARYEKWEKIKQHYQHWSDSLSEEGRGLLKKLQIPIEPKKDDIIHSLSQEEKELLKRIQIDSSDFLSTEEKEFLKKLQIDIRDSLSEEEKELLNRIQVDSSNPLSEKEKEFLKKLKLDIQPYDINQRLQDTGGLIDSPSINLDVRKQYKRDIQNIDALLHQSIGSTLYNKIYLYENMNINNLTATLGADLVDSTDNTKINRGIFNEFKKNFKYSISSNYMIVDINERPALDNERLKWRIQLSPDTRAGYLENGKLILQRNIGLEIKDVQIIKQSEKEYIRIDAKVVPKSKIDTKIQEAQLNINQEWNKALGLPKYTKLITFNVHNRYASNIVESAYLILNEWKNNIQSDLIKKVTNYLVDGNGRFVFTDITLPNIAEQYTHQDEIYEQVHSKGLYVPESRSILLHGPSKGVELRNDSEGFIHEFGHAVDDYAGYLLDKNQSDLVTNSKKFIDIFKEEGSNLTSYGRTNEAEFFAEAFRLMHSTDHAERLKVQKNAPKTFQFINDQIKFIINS

The target of a further test is T2, Interstitial collagenase (Homo sapiens, UniProt P03956).
T2 sequence (P03956 whole entry): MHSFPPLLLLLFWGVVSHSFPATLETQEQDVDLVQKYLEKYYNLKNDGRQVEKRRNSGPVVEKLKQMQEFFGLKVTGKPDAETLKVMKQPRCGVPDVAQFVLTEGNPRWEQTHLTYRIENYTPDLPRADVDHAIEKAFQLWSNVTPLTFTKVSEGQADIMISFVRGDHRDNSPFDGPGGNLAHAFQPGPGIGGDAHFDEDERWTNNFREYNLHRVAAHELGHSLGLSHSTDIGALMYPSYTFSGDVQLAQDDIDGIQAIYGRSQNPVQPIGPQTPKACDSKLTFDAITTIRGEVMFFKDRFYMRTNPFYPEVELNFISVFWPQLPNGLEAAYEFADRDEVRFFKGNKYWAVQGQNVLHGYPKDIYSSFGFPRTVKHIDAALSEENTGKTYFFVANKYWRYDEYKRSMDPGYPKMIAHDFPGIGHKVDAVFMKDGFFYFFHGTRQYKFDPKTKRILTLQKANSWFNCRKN
Briefly: Activity at MMP1.

In the next test the target is Stromelysin-1 (Homo sapiens, UniProt P08254). Briefly: Activity at MMP3.
Sequence of Stromelysin-1 (P08254 whole entry): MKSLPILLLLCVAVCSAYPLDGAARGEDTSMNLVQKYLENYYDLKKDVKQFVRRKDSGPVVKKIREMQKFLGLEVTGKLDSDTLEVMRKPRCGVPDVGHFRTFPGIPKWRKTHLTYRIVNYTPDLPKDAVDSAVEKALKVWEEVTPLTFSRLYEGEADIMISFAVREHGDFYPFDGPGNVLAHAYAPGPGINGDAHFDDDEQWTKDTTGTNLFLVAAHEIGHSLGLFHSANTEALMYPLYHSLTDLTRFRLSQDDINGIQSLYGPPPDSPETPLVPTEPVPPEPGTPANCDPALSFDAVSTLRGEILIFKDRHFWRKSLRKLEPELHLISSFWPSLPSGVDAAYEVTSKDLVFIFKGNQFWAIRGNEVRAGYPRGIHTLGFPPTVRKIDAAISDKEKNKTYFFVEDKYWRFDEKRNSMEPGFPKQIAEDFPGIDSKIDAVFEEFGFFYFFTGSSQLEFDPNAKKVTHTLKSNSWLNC
Test [1] addresses Matrix metalloproteinase-9 (Homo sapiens, UniProt P14780). Briefly: Activity at MMP9.
Test [2] deals with Macrophage metalloelastase (Homo sapiens, UniProt P39900). The experiment in a line: Activity at MMP12.
Sequence of Macrophage metalloelastase (P39900 whole entry): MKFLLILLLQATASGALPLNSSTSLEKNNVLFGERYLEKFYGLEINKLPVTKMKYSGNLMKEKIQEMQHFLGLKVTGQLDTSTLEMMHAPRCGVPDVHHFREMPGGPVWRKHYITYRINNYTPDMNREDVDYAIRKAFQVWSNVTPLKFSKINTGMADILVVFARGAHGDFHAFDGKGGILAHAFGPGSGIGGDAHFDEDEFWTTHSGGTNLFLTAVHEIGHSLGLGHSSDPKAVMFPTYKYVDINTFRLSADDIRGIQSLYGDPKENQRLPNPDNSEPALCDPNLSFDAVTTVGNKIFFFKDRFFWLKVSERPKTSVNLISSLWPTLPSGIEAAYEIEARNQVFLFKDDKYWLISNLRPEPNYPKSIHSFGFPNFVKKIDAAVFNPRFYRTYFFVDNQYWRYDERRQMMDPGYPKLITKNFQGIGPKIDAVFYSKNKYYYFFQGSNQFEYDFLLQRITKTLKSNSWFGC
In test [3] the target is Matrix metalloproteinase-14 (Homo sapiens, UniProt P50281). Briefly: Activity at MMP14.

Sequence of Matrix metalloproteinase-9 (P14780 whole entry): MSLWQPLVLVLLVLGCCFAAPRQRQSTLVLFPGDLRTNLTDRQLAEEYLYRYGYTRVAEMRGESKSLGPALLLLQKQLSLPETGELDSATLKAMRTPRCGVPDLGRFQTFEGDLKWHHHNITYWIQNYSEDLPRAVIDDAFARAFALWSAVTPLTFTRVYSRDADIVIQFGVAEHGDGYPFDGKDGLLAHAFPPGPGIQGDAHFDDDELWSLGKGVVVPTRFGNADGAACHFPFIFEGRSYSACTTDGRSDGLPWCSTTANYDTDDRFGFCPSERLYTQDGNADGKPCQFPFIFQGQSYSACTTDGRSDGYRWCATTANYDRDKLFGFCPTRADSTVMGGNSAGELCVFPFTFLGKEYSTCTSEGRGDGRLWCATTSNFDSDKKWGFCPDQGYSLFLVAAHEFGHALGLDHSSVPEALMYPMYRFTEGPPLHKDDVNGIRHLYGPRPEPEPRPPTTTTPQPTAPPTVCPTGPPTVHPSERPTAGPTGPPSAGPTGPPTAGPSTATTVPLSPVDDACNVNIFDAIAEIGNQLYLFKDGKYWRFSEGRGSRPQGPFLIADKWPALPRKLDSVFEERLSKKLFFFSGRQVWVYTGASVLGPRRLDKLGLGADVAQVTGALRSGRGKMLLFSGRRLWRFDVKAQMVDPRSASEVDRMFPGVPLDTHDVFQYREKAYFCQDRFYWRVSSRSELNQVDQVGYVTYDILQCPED

For the compound `NC(N)=NC[C@H]1O[C@H](O[C@H]2[C@H](O)[C@@H](O)[C@H](N=C(N)N)C[C@@H]2N)[C@H](N)[C@@H](O)[C@@H]1O`, the pKi at Lethal factor was 4.99.
Turning to `NC[C@H]1O[C@H](O[C@H]2[C@H](O)[C@@H](O)[C@H](N=C(N)N)C[C@@H]2N=C(N)N)[C@H](N)[C@@H](O)[C@@H]1O`, the pKi at Lethal factor is 5.25.
Same read-out and setting: under `NC[C@H]1O[C@H](O[C@H]2[C@H](O)[C@@H](O)[C@H](N=C(N)N)C[C@@H]2N)[C@H](N=C(N)N)[C@@H](O)[C@@H]1O` stands 5.28; under `NC(N)=NC[C@H]1O[C@H](O[C@H]2[C@H](O)[C@@H](O)[C@H](N)C[C@@H]2N)[C@H](N=C(N)N)[C@@H](O)[C@@H]1O`, 5.11; under `NC[C@H]1O[C@H](O[C@H]2[C@H](O)[C@@H](O)[C@H](N)C[C@@H]2N=C(N)N)[C@H](N)[C@@H](O)[C@@H]1O`, 5.28.
Take `NC[C@H]1O[C@H](O[C@H]2[C@H](O)[C@@H](O)[C@H](N)C[C@@H]2N=C(N)N)[C@H](N=C(N)N)[C@@H](O)[C@@H]1O`: the pKi at Lethal factor is 6.15; on Interstitial collagenase, below 3.52; at Stromelysin-1, below 3.52; in test [1], below 3.52; in test [2] it was below 3.52; in test [3] it was below 3.52.
Consider `N=C(N)NC[C@H]1O[C@H](O[C@H]2[C@H](O)[C@@H](O)[C@H](NC(=N)N)C[C@@H]2NC(=N)N)[C@H](NC(=N)N)[C@@H](O)[C@@H]1O`, for which the pKi on Lethal factor is 6.15; at Interstitial collagenase it was below 3.52; at Stromelysin-1 it was below 3.52; in test [1] it was below 3.52; in test [2] it was below 3.52; in test [3] it was below 3.52.
For `CO[C@@H]1[C@@H](OC)[C@H](N=C(N)N)C[C@H](N=C(N)N)[C@H]1O[C@H]1O[C@H](CN=C(N)N)[C@@H](OC)[C@H](OC)[C@H]1N=C(N)N`, the pKi on Lethal factor is 5.82; on Interstitial collagenase it was below 3.52; on Stromelysin-1, below 3.52; in test [1], below 3.52; in test [2] it was below 3.52; in test [3], below 3.52.
For the compound `NC(N)=NC[C@H]1O[C@H](O[C@H]2[C@H](O)[C@@H](O)[C@H](N)C[C@@H]2N=C(N)N)[C@H](N=C(N)N)[C@@H](O)[C@@H]1O`, the negative-log Ki (pKi) on Lethal factor was 5.04.
Still for that read-out and setting: then `NC(N)=NC[C@H]1O[C@H](O[C@H]2[C@H](O)[C@@H](O)[C@H](N=C(N)N)C[C@@H]2N)[C@H](N=C(N)N)[C@@H](O)[C@@H]1O`, with 5.51; and `NC(N)=NC[C@H]1O[C@H](O[C@H]2[C@H](O)[C@@H](O)[C@H](N)C[C@@H]2N)[C@H](N)[C@@H](O)[C@@H]1O`, with 4.61.
Same read-out and setting: then `NC(N)=NC[C@H]1O[C@H](O[C@H]2[C@H](O)[C@@H](O)[C@H](N=C(N)N)C[C@@H]2N=C(N)N)[C@H](N)[C@@H](O)[C@@H]1O`, with 5.06; and `NC(N)=NC[C@H]1O[C@H](O[C@H]2[C@H](O)[C@@H](O)[C@H](N)C[C@@H]2N=C(N)N)[C@H](N)[C@@H](O)[C@@H]1O`, with 5.06; and `NC[C@H]1O[C@H](O[C@H]2[C@H](O)[C@@H](O)[C@H](N=C(N)N)C[C@@H]2N)[C@H](N)[C@@H](O)[C@@H]1O`, with 5.30.
The same measure, in the same setting: under `NC[C@H]1O[C@H](O[C@H]2[C@H](O)[C@@H](O)[C@H](N)C[C@@H]2N)[C@H](N=C(N)N)[C@@H](O)[C@@H]1O` stands 4.96.
Turning to `NC[C@H]1O[C@H](O[C@H]2[C@H](O)[C@@H](O)[C@H](N=C(N)N)C[C@@H]2N=C(N)N)[C@H](N=C(N)N)[C@@H](O)[C@@H]1O`, the pKi on Lethal factor was 6.30; at Interstitial collagenase, below 3.52; at Stromelysin-1, below 3.52; in test [1] it was below 3.52; in test [2], below 3.52; in test [3], below 3.52.
